Test results: publication PMC5183552 (Neuropharmacology, 2016)

Assays:
mouse A1AR = molecular target: T1, mouse A1AR (Mus musculus, UniProt Q60612); assay: Radioligand binding, recombinant mouse A1AR in HEK-293 membranes; settings: read-out: Ki, mouse A1AR; current results, ±SEM
T1 sequence (Q60612 1-326): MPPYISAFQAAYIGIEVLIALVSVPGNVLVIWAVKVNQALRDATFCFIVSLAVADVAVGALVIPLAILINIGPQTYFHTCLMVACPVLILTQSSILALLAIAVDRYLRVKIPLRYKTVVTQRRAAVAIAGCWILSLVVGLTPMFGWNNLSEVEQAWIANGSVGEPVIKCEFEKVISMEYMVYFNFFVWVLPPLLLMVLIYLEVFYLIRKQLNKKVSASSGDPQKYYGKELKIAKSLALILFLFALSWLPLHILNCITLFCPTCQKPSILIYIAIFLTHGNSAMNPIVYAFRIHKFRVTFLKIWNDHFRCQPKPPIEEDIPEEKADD

mice [1] = assay: Temperature gradient; type: in vivo, mouse; settings: Adora3−/− mice, 3 mg/kg, i.p.
Human A2AAR = Human A2AAR (Homo sapiens, UniProt P29274); settings: read-out: Ki, human A2AAR; ref Franchetti et al, 2009; cited from earlier work
Human A3AR = molecular target: T2, Human A3AR (Homo sapiens, UniProt P0DMS8); settings: read-out: Ki, human A3AR; ref Franchetti et al, 2009; cited from earlier work
T2 sequence (P0DMS8 1-318): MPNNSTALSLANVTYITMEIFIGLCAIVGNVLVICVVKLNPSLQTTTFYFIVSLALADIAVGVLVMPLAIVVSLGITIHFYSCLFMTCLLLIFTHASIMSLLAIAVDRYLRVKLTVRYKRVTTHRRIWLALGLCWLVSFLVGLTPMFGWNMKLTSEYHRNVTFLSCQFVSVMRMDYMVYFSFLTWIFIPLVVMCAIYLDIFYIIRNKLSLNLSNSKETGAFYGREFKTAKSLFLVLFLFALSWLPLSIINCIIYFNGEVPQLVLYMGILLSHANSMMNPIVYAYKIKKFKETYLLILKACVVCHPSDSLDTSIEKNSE

mouse A3AR = molecular target: T3, mouse A3AR (Mus musculus, UniProt Q61618); assay: Radioligand binding, recombinant mouse A3AR in HEK-293 membranes; settings: read-out: Ki, mouse A3AR; current results, ±SEM
T3 sequence (Q61618 1-319): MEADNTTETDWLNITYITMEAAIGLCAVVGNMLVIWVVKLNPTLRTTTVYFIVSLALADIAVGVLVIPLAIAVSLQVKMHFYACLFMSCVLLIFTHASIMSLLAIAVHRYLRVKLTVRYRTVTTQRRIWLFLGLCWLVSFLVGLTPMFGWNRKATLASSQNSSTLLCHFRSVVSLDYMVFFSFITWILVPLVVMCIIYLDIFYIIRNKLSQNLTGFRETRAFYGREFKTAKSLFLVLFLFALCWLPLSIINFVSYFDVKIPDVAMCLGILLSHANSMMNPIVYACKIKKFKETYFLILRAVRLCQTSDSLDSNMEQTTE

mouse = settings: 0.5 mg/kg, ref Luongo et al, 2012; cited from earlier work
mice [2] = assay: Indirect calorimetry; type: in vivo, mouse; settings: Adora3−/− mice, 3 mg/kg, i.p.
mice [3] = assay: Body temperature; type: in vivo, mouse
[4] = C57BL/6J mice, 0.3–10 mg/kg, i.p.

Chain of Human A2AAR (P29274 whole entry): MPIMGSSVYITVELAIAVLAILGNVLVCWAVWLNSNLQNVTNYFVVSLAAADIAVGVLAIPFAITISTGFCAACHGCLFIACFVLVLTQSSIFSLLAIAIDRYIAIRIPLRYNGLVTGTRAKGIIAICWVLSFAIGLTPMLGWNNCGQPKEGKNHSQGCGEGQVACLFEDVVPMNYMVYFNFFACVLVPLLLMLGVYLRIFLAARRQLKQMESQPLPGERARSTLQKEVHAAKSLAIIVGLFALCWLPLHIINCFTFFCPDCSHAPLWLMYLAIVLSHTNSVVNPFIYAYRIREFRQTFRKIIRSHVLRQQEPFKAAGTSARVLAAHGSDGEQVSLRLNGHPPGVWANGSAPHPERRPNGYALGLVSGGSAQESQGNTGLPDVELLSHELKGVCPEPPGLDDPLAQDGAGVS

SMILES: O[C@@H]1[C@H](O)[C@@H](CCl)O[C@H]1n1cnc2c(NC3CC4CCC3C4)ncnc21 (mixture of isomers) [Cl-ENBA, (±)-5'-chloro-5'-deoxy-N^6-endo-norbornyladenosine]
- Ki (mouse A1AR): 0.2 ± 0.01 nM
- Environmental temperature preference in thermal gradient (mice [1]): modest preference for a cooler place
- Ki (Human A2AAR): 1340 nM
- Ki (Human A3AR): 1290 nM
- Ki (mouse A3AR): 2410 ± 325 nM
- Anti-nociceptive effect (mouse): anti-nociceptive
- Time of TEE nadir (mice [2]): ~ 50 min
- Time of Tb nadir (mice [2]): ~ 100 min
- Effect on metabolic rate (total energy expenditure) (mice [2]; before the Tb nadir): reduced metabolic rate
- Effect on physical activity (mice [2]; before the Tb nadir): reduced
- Effect of i.c.v. dosing on Tb in Adora1−/− mice (mice [3]; 15 µg/mouse, i.c.v.): greatly diminished
- Hypothermia in mast cell-deficient Kit W-sh/W-sh mice (mice [3]; 1 mg/kg, i.p.): largely intact
- Hypothermia in Adora1−/− mice vs wild type (mice [3]; 3 mg/kg, i.p.): largely abolished
- Hypothermia in Adora1−/−;Adora3−/− mice (mice [3]; 3 mg/kg, i.p.): completely lost
- Hypothermia in Adora3−/− mice vs wild type (mice [3]; 3 mg/kg, i.p.): remained present
- Hypothermia in mast cell-deficient Kit W-sh/W-sh mice (mice [3]; 3 mg/kg, i.p.): significantly attenuated
- Hypothermia after pretreatment with raclopride (mice [3]; 3 mg/kg, i.p., raclopride 1 mg/kg, data not shown): not affected
- Effect on Tb (mice [3]; [4]): dose-dependent hypothermia
- Effect on physical activity (mice [3]; [4]): hypoactivity
